{"source": "ChEMBL document CHEMBL5338771", "about": "“Trioxacarcin A Interactions with G-Quadruplex DNA Reveal Its Potential New Targets as an Anticancer Agent” (J Med Chem, 2023)", "type_in_all_cases": "nucleic-acid assay", "key": {"Quadruplex DNA [1]": {"test_system": "Quadruplex DNA", "assay": "Induction of DNA stabilization in free RET G4 quadruplex DNA (unknown origin) assessed as melting temperature in 100 mM K+ buffer solution by DSC spectra analysis"}, "Quadruplex DNA [2]": {"test_system": "Quadruplex DNA", "assay": "Covalent binding affinity to RET G4 quadruplex DNA (unknown origin) assessed as stable complex formation measured after 9 days by mass spectrum analysis", "settings": "time 9.0 day"}, "Quadruplex DNA [3]": {"test_system": "Quadruplex DNA", "assay": "Covalent binding affinity to RET G4 quadruplex DNA (unknown origin) assessed as alkylation at G14 base by DNA cleavage assay"}, "Quadruplex DNA [4]": {"test_system": "Quadruplex DNA", "assay": "Binding affinity to c-MYC G4 quadruplex DNA (unknown origin) by 1D 1H-NMR analysis"}, "Quadruplex DNA [5]": {"test_system": "Quadruplex DNA", "assay": "Covalent binding affinity to RET G4 quadruplex DNA (unknown origin) by measuring molecular weight for complex formation by ESI mass spectrum analysis"}, "Quadruplex DNA [6]": {"test_system": "Quadruplex DNA", "assay": "Binding affinity to RET G4 quadruplex DNA (unknown origin) by measuring chemical shift change for 0 to 21 days by 1D 1H-NMR analysis", "settings": "time 0-21 day"}, "Quadruplex DNA [7]": {"test_system": "Quadruplex DNA", "assay": "Covalent binding affinity to RET G4 quadruplex DNA (unknown origin) assessed as alkylation at G6 base by DNA cleavage assay"}, "Quadruplex DNA [8]": {"test_system": "Quadruplex DNA", "assay": "Covalent binding affinity to RET G4 quadruplex DNA (unknown origin) assessed as alkylation at G4 base at 98 degC for 5 mins by DNA cleavage assay"}, "Quadruplex DNA [9]": {"test_system": "Quadruplex DNA", "assay": "Covalent binding affinity to RET G4 quadruplex DNA (unknown origin) assessed as stable complex formation by measuring molecular weight peak after 19 days by mass spectrum analysis", "settings": "time 19.0 day"}, "Quadruplex DNA [10]": {"test_system": "Quadruplex DNA", "assay": "Induction of DNA stabilization in abasic-basic RET G4 quadruplex DNA (unknown origin) assessed as melting temperature in 100 mM K+ buffer solution by DSC spectra analysis"}, "Quadruplex DNA [11]": {"test_system": "Quadruplex DNA", "assay": "Induction of DNA stabilization in RET G4 quadruplex DNA (unknown origin) containing 2'-F base G4 assessed as melting temperature (reference value: 71.99 degreeC)"}}, "note": "Active and inactive are the calls of the source. The rule behind the calls is not given here."}
{"smiles": "COc1c2c(c(O)c3c4c(c(C)cc13)C1O[C@@]3(C(OC)OC)OC1[C@](O[C@H]1C[C@@H](O)[C@@](O)(C(C)=O)[C@H](C)O1)(O4)C31CO1)C(=O)[C@@H](O)C[C@@H]2OC1C[C@](C)(O)[C@@H](OC(C)=O)[C@@H](C)O1", "note": "(stereo partly specified)", "values": [{"measurement": "Tm", "setting": "Quadruplex DNA [1]", "result": 91, "unit": "°C"}, {"measurement": "Activity", "setting": "Quadruplex DNA [2]", "result": "Active"}, {"measurement": "Activity", "setting": "Quadruplex DNA [3]", "result": "inactive"}, {"measurement": "Activity", "setting": "Quadruplex DNA [4]", "result": "Active"}, {"measurement": "Activity", "setting": "Quadruplex DNA [5]", "result": 6450, "unit": "Da"}, {"measurement": "Activity", "setting": "Quadruplex DNA [6]", "result": "Active"}, {"measurement": "Activity", "setting": "Quadruplex DNA [7]", "result": "inactive"}, {"measurement": "Activity", "setting": "Quadruplex DNA [8]", "result": "Active"}, {"measurement": "Activity", "setting": "Quadruplex DNA [9]", "result": 7330, "unit": "Da"}, {"measurement": "Tm", "setting": "Quadruplex DNA [10]", "result": 78, "unit": "°C"}, {"measurement": "Tm", "setting": "Quadruplex DNA [11]", "result": 74.7, "unit": "°C"}]}
